The values that follow come from US6541195B2, “Correction of genetic defects using chemical chaperones” (The Regents of the University of California, priority 1996, dated 2003).

Read-outs that look alike come from different tables or passages of the source. Bounds are passed on as bounds.

For data set [1], the target named is conversion of PrP^C to PrP^Sc (Mus musculus, UniProt P04925). Format: cell-based. To be noted: for reduction of the amount of detergent insoluble PrP: 100 mM.
Data set [2] has as its system ScN2a cells.
Data set [3] concerns the target T1, ΔF508 CFTR (Homo sapiens, UniProt P13569, DEL508-508).
T1 construct: expressed in transfected cells
The data set is described as follows: Western blotting of ΔF508 CFTR processing and maturation in transfected NIH 3T3 cells. Format: cell-based. The method, then: The effect of glycerol was measured by detecting either (1) the maturation of immature core-glycosylated endoplasmic reticulum forms of the ΔF508 CFTR to mature terminally glycosylated forms, or (2) the presence of forskolin-dependent chloride transport.
Western blotting using a commercially available anti-CFTR monoclonal antibody (panel 1A) or our polyclonal anti-CFTR antibody (Panel 1B) was performed using cell lysates from NIH 3T3 cells transfected with either the wild type or ΔF508 forms of CFTR. Andersen, M. P. et al., Science, 253:202 (1991). Both the polyclonal and monoclonal antibodies recognized the 140 kDa (core glycosylated, or B form) and 160 kDa (fully glycosylated, C form) forms of CFTR in lysates from wild type CFTR expressing cells. In contrast, only the 140 kDa core glycosylated CFTR was detected by the two antibodies in the lysates from cells transfected with the ΔF508 CFTR mutant.
In panel 1C, cells expressing the ΔF508 mutant were examined by Western blotting using the rabbit polyclonal antibody following their treatment at 37° C. with 1 M glycerol for 3 days. As a positive control, the ΔF508 CFTR expressing cells were incubated at 26° C. for 3 days.
The results of experiments to determine the optimal concentration of glycerol and the duration of glycerol treatment needed to elicit the highest levels of mutant ΔF508 CFTR maturation are summarized in FIG. 2. In panel 2A, cells expressing ΔF508 CFTR were incubated at 37° C. for 3 days in culture medium containing various concentrations of glycerol. The cells were harvested and then analyzed by Western blotting using the rabbit polyclonal anti-CFTR antibody. In panel 2B, cells expressing ΔF508 CFTR were incubated with 1.25 M glycerol at 37° C. for 1, 2 or 3 days and then analyzed by Western blotting as described in A. Glycerol concentrations of 1-1.25 M gave the maximal amount of mutant protein which was properly processed.
In Panel A of FIG. 22, 3T3 cells expressing the ΔF508 CFTR protein (via stable transfection) were treated with either 100 or 200 mM of the specified cellular osmolytes for 2 days. Cells were then lysed and examined by Western blot analysis. Wt represents cells expressing the wild type CFTR protein. B, G, T, S and M indicated cells treated with betaine, glucose, taurine, sorbitol and myoinositol, respectively.
In Panel A, cells expressing ΔF508 CFTR were incubated in the presence or absence of varying concentrations (25, 50, 100 mM) of osmolyte. After 2 days of growth, the cells were harvested and analyzed for their content of immature (band B) and mature (band C) forms of the CFTR protein by Western blotting. Cells expressing wild type CFTR (wt) were included as a positive control. In Panel B, cells expressing ΔF508 CFTR were incubated for 1 (1D), 2(2D) or 3 (3D) days in growth medium containing 150 mM of the indicated osmolyte. As a control, the same cells were incubated in normal growth medium. […] After 3 days of continuous treatment with 150 mM osmolyte there is see a “drop-off” of the amount of the C band.
In general terms: Immunoblotting shows a protein as a band on a membrane.

Data set [4] deals with T1, ΔF508 CFTR. The data set is described as follows: Forskolin stimulated chloride transport, SPQ fluorescence assay. Format: cell-based. To be noted: for forskolin dependent chloride efflux: 37° C. On the procedure:
(§1) Forskolin-sensitive chloride transport was measured by the fluorescence assays method (FIG. 3). Briefly, ΔF508-CFTR expressing cells were grown on glass coverslips at 37° C. in the absence or presence of 1.25 M glycerol for 3 days. These cells, along with cells expressing wild type CFTR, then were examined for forskolin stimulated chloride transport using SPQ fluorescence assays, as described in: Verkman, A. S., Am. J. Physiol., 259:C375 (1990); Verkman, A. S. et al., in Methods in Neurosciences, Kraicer, J. et al., Eds. (Academic Press, 1995) vol. 27, 328. Plasma membrane chloride efflux was measured from the time course of increase in SPQ fluorescence in response to replacement of intracellular chloride by nitrate. Cells in the presence or absence of a protein stabilizing agent were incubated with 2 mM SPQ for 12-18 hrs. prior to measurements. The rate of chloride efflux was measured before and after stimulation of cAMP with forskolin. The reaction was quenched by the addition of 150 mM KSCN.
(§2) The positive effect of glycerol treatment on chloride conductance was concentration and time dependent (FIG. 3B). ΔF508 CFTR-expressing cells growing on glass coverslips were incubated with various concentrations of glycerol for 3 days and then examined for forskolin stimulated chloride transport. Alternatively, cells were incubated with 1.25 M glycerol for varying times (1, 2 or 3 days) and then analyzed for chloride transport following stimulation by forskolin.
Powdered DMEM medium (Gibco) was reconstituted in 100% distilled water or in 100% […]. Cells transfected with ΔF508 CFTR or mock transfected cells were incubated in either the distilled water or the dH2O containing culture medium for two days at 37° C., and then analyzed for forskolin dependent chloride efflux.
Both mock transfected cells and the cells transfected with ΔF508 CFTR were incubated in regular DMEM culture medium containing 100 mM TMAO for two days at 37° C. and then analyzed for forskolin dependent chloride efflux.
In contrast, cells treated with 4 different osmolytes now show partial chloride transport (note however that it never reaches the wild type levels, rather only about 10-30% of wild type).

Data set [5] has as its system temperature sensitive form of pp60^src. Format: cell-based, Rous sarcoma virus. To be noted: 39.5° C.
The target of data set [6] is temperature sensitive (ts) mutant p53 protein (Mus musculus, UniProt P02340, A135V). The data set is described as follows: Intracellular localization of temperature sensitive p53 in A1-5 cells by indirect immunofluorescence. To be noted: 39.5° C., after 2 D treatment.
The target in data set [7] is T2, wild type CFTR protein (Homo sapiens, UniProt P13569).
T2 construct: expressed in transfected cells; host or cells: NIH 3T3 fibroblasts
Description: Glycerol exposure of cells expressing wild type CFTR (Western blotting, chloride conductance). Format: cell-based. To be noted: data not shown. The method, then:
as §1, with “Cells in the presence or absence of a protein stabilizing agent were incubated with 2 mM SPQ for 12-18 hrs. prior to measurements.” left out, “The reaction was quenched by the addition of 150 mM KSCN.” left out
as §2

temperature sensitive (ts) mutant p53 protein, sequence (P02340 whole entry A135V): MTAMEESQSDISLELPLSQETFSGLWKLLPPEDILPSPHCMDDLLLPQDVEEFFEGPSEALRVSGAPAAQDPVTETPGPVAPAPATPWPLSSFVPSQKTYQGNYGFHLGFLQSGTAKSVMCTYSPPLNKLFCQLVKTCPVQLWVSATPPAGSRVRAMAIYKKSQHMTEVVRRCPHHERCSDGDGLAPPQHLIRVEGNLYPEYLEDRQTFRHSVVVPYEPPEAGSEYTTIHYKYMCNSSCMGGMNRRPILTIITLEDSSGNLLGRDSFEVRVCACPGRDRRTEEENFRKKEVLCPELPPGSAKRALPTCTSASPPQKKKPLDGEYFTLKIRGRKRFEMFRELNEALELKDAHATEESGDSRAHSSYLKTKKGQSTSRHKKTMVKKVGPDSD
T1 sequence (P13569 with tags, fused parts or gaps DEL508-508): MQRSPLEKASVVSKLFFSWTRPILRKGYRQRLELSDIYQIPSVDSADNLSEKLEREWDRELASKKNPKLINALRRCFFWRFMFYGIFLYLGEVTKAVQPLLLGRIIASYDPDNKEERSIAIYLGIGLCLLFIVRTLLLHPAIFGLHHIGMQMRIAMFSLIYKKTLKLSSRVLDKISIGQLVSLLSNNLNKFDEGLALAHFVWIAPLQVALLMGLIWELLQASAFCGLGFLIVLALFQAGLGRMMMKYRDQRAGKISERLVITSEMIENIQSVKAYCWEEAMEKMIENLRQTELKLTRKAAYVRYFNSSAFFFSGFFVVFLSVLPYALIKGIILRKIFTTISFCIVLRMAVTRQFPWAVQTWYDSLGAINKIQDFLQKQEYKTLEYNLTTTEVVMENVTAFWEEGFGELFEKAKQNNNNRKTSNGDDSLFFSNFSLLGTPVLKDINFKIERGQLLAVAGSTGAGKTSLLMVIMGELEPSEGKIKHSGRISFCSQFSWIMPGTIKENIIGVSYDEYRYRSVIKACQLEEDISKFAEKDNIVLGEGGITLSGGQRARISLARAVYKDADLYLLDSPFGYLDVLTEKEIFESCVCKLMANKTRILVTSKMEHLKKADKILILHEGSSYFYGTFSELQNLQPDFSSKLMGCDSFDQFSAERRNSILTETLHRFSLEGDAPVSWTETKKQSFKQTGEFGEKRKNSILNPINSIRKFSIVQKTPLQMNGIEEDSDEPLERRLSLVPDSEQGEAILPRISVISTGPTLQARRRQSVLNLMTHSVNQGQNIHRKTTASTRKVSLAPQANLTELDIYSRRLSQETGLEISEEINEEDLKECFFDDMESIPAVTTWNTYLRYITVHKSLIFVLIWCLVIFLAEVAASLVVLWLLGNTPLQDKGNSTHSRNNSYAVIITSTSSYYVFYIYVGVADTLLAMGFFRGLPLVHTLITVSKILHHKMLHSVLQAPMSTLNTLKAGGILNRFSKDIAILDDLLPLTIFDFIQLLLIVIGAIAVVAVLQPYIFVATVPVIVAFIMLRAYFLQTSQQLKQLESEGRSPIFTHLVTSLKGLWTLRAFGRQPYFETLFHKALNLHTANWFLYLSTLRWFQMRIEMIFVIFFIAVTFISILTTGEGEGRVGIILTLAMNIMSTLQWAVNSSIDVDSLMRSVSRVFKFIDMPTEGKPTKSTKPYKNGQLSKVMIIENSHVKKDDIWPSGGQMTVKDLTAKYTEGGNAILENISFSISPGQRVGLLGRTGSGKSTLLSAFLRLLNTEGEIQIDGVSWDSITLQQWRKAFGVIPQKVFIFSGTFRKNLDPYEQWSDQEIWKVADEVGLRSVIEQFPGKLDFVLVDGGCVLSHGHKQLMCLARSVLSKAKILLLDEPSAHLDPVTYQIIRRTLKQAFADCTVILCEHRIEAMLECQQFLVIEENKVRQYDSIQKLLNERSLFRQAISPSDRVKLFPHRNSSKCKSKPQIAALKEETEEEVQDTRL
conversion of PrP^C to PrP^Sc, sequence (P04925 23-230 limits assumed): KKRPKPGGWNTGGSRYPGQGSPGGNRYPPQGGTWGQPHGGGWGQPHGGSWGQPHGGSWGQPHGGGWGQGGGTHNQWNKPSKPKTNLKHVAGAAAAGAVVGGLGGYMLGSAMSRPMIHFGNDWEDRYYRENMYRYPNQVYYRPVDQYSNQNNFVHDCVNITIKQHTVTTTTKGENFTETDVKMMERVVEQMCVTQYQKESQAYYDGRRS
T2 sequence (P13569 whole entry): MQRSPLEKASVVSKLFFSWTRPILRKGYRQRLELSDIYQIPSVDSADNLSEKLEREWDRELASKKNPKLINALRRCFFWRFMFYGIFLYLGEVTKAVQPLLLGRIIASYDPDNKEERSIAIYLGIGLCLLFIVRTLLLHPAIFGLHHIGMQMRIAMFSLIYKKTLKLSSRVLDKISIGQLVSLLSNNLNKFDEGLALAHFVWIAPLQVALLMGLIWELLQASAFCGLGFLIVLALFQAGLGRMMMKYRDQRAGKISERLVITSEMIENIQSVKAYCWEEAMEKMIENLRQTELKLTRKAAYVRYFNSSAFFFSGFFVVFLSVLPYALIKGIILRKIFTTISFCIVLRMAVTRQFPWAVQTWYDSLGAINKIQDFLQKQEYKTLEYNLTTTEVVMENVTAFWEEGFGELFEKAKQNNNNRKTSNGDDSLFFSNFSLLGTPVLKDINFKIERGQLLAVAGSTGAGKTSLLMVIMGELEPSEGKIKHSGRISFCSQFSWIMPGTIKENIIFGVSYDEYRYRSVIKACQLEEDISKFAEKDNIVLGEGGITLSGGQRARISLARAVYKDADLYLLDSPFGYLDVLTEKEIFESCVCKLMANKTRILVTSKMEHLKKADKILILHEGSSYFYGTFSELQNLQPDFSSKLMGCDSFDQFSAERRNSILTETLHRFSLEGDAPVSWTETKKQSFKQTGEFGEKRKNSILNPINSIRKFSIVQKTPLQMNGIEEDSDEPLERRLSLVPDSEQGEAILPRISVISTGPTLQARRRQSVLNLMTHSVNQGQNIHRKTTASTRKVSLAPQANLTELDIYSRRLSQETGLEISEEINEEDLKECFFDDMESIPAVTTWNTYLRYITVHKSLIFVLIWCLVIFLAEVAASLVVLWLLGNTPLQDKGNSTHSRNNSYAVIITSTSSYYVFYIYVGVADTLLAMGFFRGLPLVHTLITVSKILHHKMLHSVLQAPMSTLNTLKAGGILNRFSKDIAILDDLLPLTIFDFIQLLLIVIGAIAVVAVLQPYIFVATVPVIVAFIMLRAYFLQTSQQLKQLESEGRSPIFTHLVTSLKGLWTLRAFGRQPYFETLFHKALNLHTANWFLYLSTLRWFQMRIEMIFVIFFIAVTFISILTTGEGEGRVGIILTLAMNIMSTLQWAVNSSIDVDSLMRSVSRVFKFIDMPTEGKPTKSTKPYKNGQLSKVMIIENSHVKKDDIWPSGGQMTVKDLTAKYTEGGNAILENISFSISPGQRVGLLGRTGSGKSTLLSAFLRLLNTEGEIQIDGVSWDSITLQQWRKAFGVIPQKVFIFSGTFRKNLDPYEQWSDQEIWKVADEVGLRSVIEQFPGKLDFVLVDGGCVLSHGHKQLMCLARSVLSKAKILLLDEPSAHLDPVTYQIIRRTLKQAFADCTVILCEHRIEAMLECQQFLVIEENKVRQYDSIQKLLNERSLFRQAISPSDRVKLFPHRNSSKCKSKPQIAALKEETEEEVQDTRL

As to `C[S+](C)[O-]` [DMSO, dimethylsulfoxide], the “reduction of the amount of detergent insoluble PrP” value in data set [1] (ScN2a cells) is reported as “over 50%”. Besides, in data set [2] (mouse), the “concentration adversely affecting the morphology and growth rates of the cells” value is at least 200 mM.
As for `[2H]O[2H]` [deuterated water], the “CFTR processing in ΔF508 CFTR-expressing cells” value in data set [3] (deuterated water) was “competent to induce CFTR processing”. Further, the “forskolin dependent chloride efflux” value in data set [4] (medium in 100% dH2O, two days) is “exhibited forskolin-dependent chloride transport”. In addition, the “restoration of transformed phenotype / wild type pp60^src activity” value in data set [5] is “much less effective”. The “p53 distribution 2 days following removal of the agent” value in data set [6] is “all of p53 now was found within the cytoplasm”.
Regarding `OCC(O)CO` [glycerol], the “mature ΔF508 CFTR protein by Western blotting” value in data set [3] (1 M glycerol, 37° C., 3 days) is recorded as “significant amounts of the mature ΔF508 CFTR protein”. For the same compound, the “duration of treatment giving maximal amounts of fully glycosylated ΔF508 CFTR protein” value in data set [3] (1.25 M glycerol, 37° C.) is reported as 3 days. Further, the “glycerol concentration giving the maximal amount of properly processed mutant protein” value in data set [3] (37° C., 3 days) is 1 to 1.25 M. Also, the “effect of higher doses on fully glycosylated ΔF508 CFTR” value in data set [3] (doses higher than 1-1.25 M, 3 days) is listed as “inhibitory”. In data set [4] (1.25 M glycerol, one day), the “forskolin stimulated chloride transport” value is listed as “forskolin stimulated chloride transport was observed”. For the same compound, in data set [4] (3 days), the “concentration giving maximal rates of chloride efflux” value stood at 1.25 M and the “lowest concentration with increased chloride transport” value stood at 0.5 M. Further, in data set [7], the “effect on amount of mature wild type CFTR protein or forskolin dependent chloride conductance” value is “little or no effect”. Besides, the “exogenously added MHM2 PrP in detergent fractions versus untreated ScN2a cells” value in data set [1] (1 M glycerol 24 hrs, 40 hrs with MHM2 brain extract, 3F4 antibody) is “reduce the levels of the MHM2 protein in both the detergent soluble and insoluble fractions”. For the same compound, the “glycerol concentrations also giving significant reduction in conversion of PrP^C to PrP^Sc” value in data set [1] (3 days) is listed as 0.25-0.5 M. Besides, in data set [1] (3 days, 0-1,000 mM tested), the “most effective glycerol concentration for reducing detergent insoluble PrP” value turned out to be 1 M. Moreover, in data set [1] (ScN2a cells, glycerol 24 hrs), the “overall levels of insoluble PrP versus non-glycerol treated cells” value is “marked reduction”. Also, in data set [1] (glycerol 24 hrs, PIPLC 5 U/ml 4 hrs), the “PrP^C synthesis and movement of the newly synthesized protein to the plasma membrane (PIPLC release)” value was “does not significantly affect”. In addition, the “overall extent of PrP^C to PrP^Sc conversion relative to untreated cells (pulse-chase)” value in data set [1] (glycerol 3 days, then 5 days without glycerol) is on record as “marked reduction”. In addition, the “rate or overall extent of PrP^C synthesis (metabolic labeling)” value in data set [1] (presence versus absence of glycerol) is “no significant differences”. The “p53 distribution one day following removal of the agent” value in data set [6] is on record as “no longer displayed a nuclear p53 distribution”.
For `C[N+](C)(C)[O-]` [TMAO, trimethylamine N-oxide], the “forskolin dependent chloride efflux” value in data set [4] (100 mM TMAO, 2 days) was “Forskolin dependent chloride transport was observed”. In addition, in data set [1] (ScN2a cells), the “reduction of the amount of detergent insoluble PrP” value was “over 50%”. Moreover, the “restoration of transformed phenotype / wild type pp60^src activity” value in data set [5] is reported as “much less effective”. Also, in data set [2], the “concentration adversely affecting the morphology and growth rates of the cells” value is at least 200 mM. Further, in data set [6], the “p53 distribution 2 days following removal of the agent” value was “all of p53 now was found within the cytoplasm”.
